{"source": "ChEMBL document CHEMBL6127154", "about": "“Pursuing Polypharmacology: Benzothiopyranoindoles as G-Quadruplex Stabilizers and Topoisomerase I Inhibitors for Effective Anticancer Strategies” (ACS Med Chem Lett, 2024)", "key": {"Quadruplex DNA [1]": {"test_system": "Quadruplex DNA", "test": "Thermal stabilization of human Tel26-hy G4 quadruplex DNA assessed as change in melting temperature (deltaT1/2) incubated for 10 mins by circular dichroism spectroscopic analysis (reference value: 55.4 +/- 0.1 degreeC)", "type": "nucleic-acid assay"}, "Quadruplex DNA [2]": {"test_system": "Quadruplex DNA", "test": "Thermal stabilization of human Tel23-hy G4 quadruplex DNA assessed as change in melting temperature (deltaT1/2) incubated for 10 mins by circular dichroism spectroscopic analysis (reference value: 48 +/- 0.1 degreeC)", "type": "nucleic-acid assay"}, "Quadruplex DNA [3]": {"test_system": "Quadruplex DNA", "test": "Thermal stabilization of human Tel23-p G4 quadruplex DNA assessed as change in melting temperature (deltaT1/2) incubated for 10 mins by circular dichroism spectroscopic analysis (reference value: 68.2 +/- 0.1 degreeC)", "type": "nucleic-acid assay"}, "Quadruplex DNA [4]": {"test_system": "Quadruplex DNA", "test": "Thermal stabilization of human c-Myc G4 quadruplex DNA assessed as change in melting temperature (deltaT1/2) incubated for 10 mins by circular dichroism spectroscopic analysis (reference value: 70.5 +/- 0.1 degreeC)", "type": "nucleic-acid assay"}, "Quadruplex DNA [5]": {"test_system": "Quadruplex DNA", "test": "Thermal stabilization of human c-Kit2 G4 quadruplex DNA assessed as change in melting temperature (deltaT1/2) incubated for 10 mins by circular dichroism spectroscopic analysis (reference value: 62.4 +/-0.1 degreeC)", "type": "nucleic-acid assay"}, "HCT-116 [6]": {"test_system": "HCT-116", "test": "Induction of DNA damage in human HCT-116 cells assessed as increase in gammaH2AX level incubated for 24 hrs by immunofluorescence staining based analysis", "type": "functional, cell-based"}, "HCT-116 [7]": {"test_system": "HCT-116", "test": "Induction of DNA damage in human HCT-116 cells assessed as increase in 53BP1 foci positive cells incubated for 24 hrs by immunofluorescence staining based analysis", "type": "functional, cell-based"}}, "note": "Active and inactive are the calls of the source. The calls are words filed in the database; no cut-off is given here.", "data": [{"smiles": "COc1ccc2cc3[n+](cc2c1OC)CCc1cc2c(cc1-3)OCO2", "values": [{"measurement": "ΔTm", "setting": "Quadruplex DNA [1]", "result": 6.8, "unit": "°C"}, {"measurement": "ΔTm", "setting": "Quadruplex DNA [2]", "result": 12.7, "unit": "°C"}, {"measurement": "ΔTm", "setting": "Quadruplex DNA [3]", "result": "> 20", "unit": "°C"}, {"measurement": "ΔTm", "setting": "Quadruplex DNA [4]", "result": 15.5, "unit": "°C"}, {"measurement": "ΔTm", "setting": "Quadruplex DNA [5]", "result": "> 20", "unit": "°C"}]}, {"smiles": "CC[C@@]1(O)C(=O)OCc2c1cc1n(c2=O)Cc2cc3ccccc3nc2-1", "values": [{"measurement": "Activity", "setting": "HCT-116 [6]", "result": "Active"}, {"measurement": "Activity", "setting": "HCT-116 [7]", "result": "Active"}]}]}
